Laboratory results taken from patent US20140120232A1, “ACID TASTE/ACID SMELL-REDUCING AGENT” (T. HASEGAWA CO., LTD., priority 2011, published 2014).

Experiment: Sensory evaluation of yogurt containing the agent
Conditions: ten panels
Protocol: Sensory evaluation of each drink was carried out by ten panels. […] The piercing aroma characteristic to aldehydes is a characteristic aroma common to every aldehyde and refers to an irritant off-smell giving an image of deteriorated oils and fats, soap, metals, Houttuynia cordata, etc. The judgment of smell was performed by comparing the effects at different concentrations of the acid taste and/or acid smell-reducing agent, and a concentration giving the highest acid taste/acid smell quality was selected.
A yogurt base material as a control was prepared by mixing 100 parts by mass of commercially available plain yogurt (milk non-fat solids: 9.5%, milk fat component: 3.0%) with 0.1 parts by mass of acetic acid (glacial acetic acid: food additive, manufactured by Junsei Chemical Co., Ltd.) with stirring. To the resulting mixture was added (Z,Z)-4,7-tridecadienal as the acid taste and/or acid smell-reducing agent of the present invention in concentrations shown in the following Table 9 to give yogurt containing the agent, followed by sensory evaluation as in Example 1.

CCCCC/C=C\C/C=C\CCC=O [(Z,Z)-4,7-tridecadienal]
8: A: number of panels, acid taste/acid smell extreme and cause irritation (0.02 ppt) | N: number of panels, irritation of acid reduced to give a mild acid taste (5 ppt) | X: number of panels, acid taste reduced but piercing odor characteristic to aldehydes unpleasant (50 ppb)
6: N: number of panels, irritation of acid reduced to give a mild acid taste (0.5 ppt) | N: number of panels, irritation of acid reduced to give a mild acid taste (1 ppt) | X: number of panels, acid taste reduced but piercing odor characteristic to aldehydes unpleasant (10 ppb) | N: number of panels, irritation of acid reduced to give a mild acid taste (20 ppt)
10: A: number of panels, acid taste/acid smell extreme and cause irritation (0.005 ppt)
1: A: number of panels, acid taste/acid smell extreme and cause irritation (0.5 ppt) | B: number of panels, acid taste/acid smell slightly strong and slightly cause irritation (0.5 ppt) | Flavor judgment: number of panels who judged acid taste/acid smell quality the highest (0.5 ppt) | B: number of panels, acid taste/acid smell slightly strong and slightly cause irritation (1 ppt) | C: number of panels, acid taste/acid smell slightly unpleasant (50 ppb) | N: number of panels, irritation of acid reduced to give a mild acid taste (50 ppb) | B: number of panels, acid taste/acid smell slightly strong and slightly cause irritation (100 ppt)
5: A: number of panels, acid taste/acid smell extreme and cause irritation (0.1 ppt)
2: B: number of panels, acid taste/acid smell slightly strong and slightly cause irritation (0.02 ppt) | C: number of panels, acid taste/acid smell slightly unpleasant (0.1 ppt) | C: number of panels, acid taste/acid smell slightly unpleasant (0.5 ppt) | Flavor judgment: number of panels who judged acid taste/acid smell quality the highest (1 ppt) | C: number of panels, acid taste/acid smell slightly unpleasant (5 ppt) | C: number of panels, acid taste/acid smell slightly unpleasant (10 ppb) | N: number of panels, irritation of acid reduced to give a mild acid taste (10 ppb) | X: number of panels, acid taste reduced but piercing odor characteristic to aldehydes unpleasant (100 ppt)
4: A: number of panels, acid taste/acid smell extreme and cause irritation (0.2 ppt) | X: number of panels, acid taste reduced but piercing odor characteristic to aldehydes unpleasant (1 ppb) | Flavor judgment: number of panels who judged acid taste/acid smell quality the highest (5 ppt) | C: number of panels, acid taste/acid smell slightly unpleasant (20 ppt) | N: number of panels, irritation of acid reduced to give a mild acid taste (100 ppt) | N: number of panels, irritation of acid reduced to give a mild acid taste (500 ppt)
3: B: number of panels, acid taste/acid smell slightly strong and slightly cause irritation (0.1 ppt) | B: number of panels, acid taste/acid smell slightly strong and slightly cause irritation (0.2 ppt) | C: number of panels, acid taste/acid smell slightly unpleasant (0.2 ppt) | C: number of panels, acid taste/acid smell slightly unpleasant (1 ppb) | N: number of panels, irritation of acid reduced to give a mild acid taste (1 ppb) | C: number of panels, acid taste/acid smell slightly unpleasant (1 ppt) | Flavor judgment: number of panels who judged acid taste/acid smell quality the highest (20 ppt) | C: number of panels, acid taste/acid smell slightly unpleasant (100 ppt) | C: number of panels, acid taste/acid smell slightly unpleasant (500 ppt) | X: number of panels, acid taste reduced but piercing odor characteristic to aldehydes unpleasant (500 ppt)
0: B: number of panels, acid taste/acid smell slightly strong and slightly cause irritation (0.005 ppt) | C: number of panels, acid taste/acid smell slightly unpleasant (0.005 ppt) | Flavor judgment: number of panels who judged acid taste/acid smell quality the highest (0.005 ppt) | N: number of panels, irritation of acid reduced to give a mild acid taste (0.005 ppt) | X: number of panels, acid taste reduced but piercing odor characteristic to aldehydes unpleasant (0.005 ppt) | C: number of panels, acid taste/acid smell slightly unpleasant (0.02 ppt) | Flavor judgment: number of panels who judged acid taste/acid smell quality the highest (0.02 ppt) | N: number of panels, irritation of acid reduced to give a mild acid taste (0.02 ppt) | X: number of panels, acid taste reduced but piercing odor characteristic to aldehydes unpleasant (0.02 ppt) | Flavor judgment: number of panels who judged acid taste/acid smell quality the highest (0.1 ppt) | N: number of panels, irritation of acid reduced to give a mild acid taste (0.1 ppt) | X: number of panels, acid taste reduced but piercing odor characteristic to aldehydes unpleasant (0.1 ppt) | Flavor judgment: number of panels who judged acid taste/acid smell quality the highest (0.2 ppt) | N: number of panels, irritation of acid reduced to give a mild acid taste (0.2 ppt) | X: number of panels, acid taste reduced but piercing odor characteristic to aldehydes unpleasant (0.2 ppt) | X: number of panels, acid taste reduced but piercing odor characteristic to aldehydes unpleasant (0.5 ppt) | A: number of panels, acid taste/acid smell extreme and cause irritation (1 ppb) | B: number of panels, acid taste/acid smell slightly strong and slightly cause irritation (1 ppb) | Flavor judgment: number of panels who judged acid taste/acid smell quality the highest (1 ppb) | A: number of panels, acid taste/acid smell extreme and cause irritation (1 ppt) | X: number of panels, acid taste reduced but piercing odor characteristic to aldehydes unpleasant (1 ppt) | A: number of panels, acid taste/acid smell extreme and cause irritation (5 ppt) | B: number of panels, acid taste/acid smell slightly strong and slightly cause irritation (5 ppt) | X: number of panels, acid taste reduced but piercing odor characteristic to aldehydes unpleasant (5 ppt) | A: number of panels, acid taste/acid smell extreme and cause irritation (10 ppb) | B: number of panels, acid taste/acid smell slightly strong and slightly cause irritation (10 ppb) | Flavor judgment: number of panels who judged acid taste/acid smell quality the highest (10 ppb) | A: number of panels, acid taste/acid smell extreme and cause irritation (20 ppt) | B: number of panels, acid taste/acid smell slightly strong and slightly cause irritation (20 ppt) | X: number of panels, acid taste reduced but piercing odor characteristic to aldehydes unpleasant (20 ppt) | A: number of panels, acid taste/acid smell extreme and cause irritation (50 ppb) | B: number of panels, acid taste/acid smell slightly strong and slightly cause irritation (50 ppb) | Flavor judgment: number of panels who judged acid taste/acid smell quality the highest (50 ppb) | A: number of panels, acid taste/acid smell extreme and cause irritation (100 ppt) | Flavor judgment: number of panels who judged acid taste/acid smell quality the highest (100 ppt) | A: number of panels, acid taste/acid smell extreme and cause irritation (500 ppt) | B: number of panels, acid taste/acid smell slightly strong and slightly cause irritation (500 ppt) | Flavor judgment: number of panels who judged acid taste/acid smell quality the highest (500 ppt)
